# Entries after “also recorded” stand apart in the source; their conditions may differ.
# Assays:
# SMC-41 cell line = assay: In vitro toxicity: 3H thymidine incorporation and proliferation in SMC-41 cell line; type: cell-based; details: lyso-CTH 0.065-0.65 μM, as found in plasma of Fabry patients
# Protocol: The toxic effect of lyso-CTH was determined in vitro in SMC-41 cell line. ^3H thymidine incorporation (per 24 h) was determined as a function of lyso-CTH concentration.
# [1] = Partitioning of lyso-CTH in extraction from plasma samples; type: physicochemical
# Protocol: An optimal extraction procedure for lyso-CTH from plasma samples was established. A double extraction was carried out, first a Bligh and Dyer extraction followed by butanol extraction.
# alpha-galactosidase B = target: T1, alpha-galactosidase B (Homo sapiens, UniProt P17050); assay: Inhibition of alpha-galactosidase B by lyso-CTH; type: biochemical
# T1 sequence (P17050 18-411): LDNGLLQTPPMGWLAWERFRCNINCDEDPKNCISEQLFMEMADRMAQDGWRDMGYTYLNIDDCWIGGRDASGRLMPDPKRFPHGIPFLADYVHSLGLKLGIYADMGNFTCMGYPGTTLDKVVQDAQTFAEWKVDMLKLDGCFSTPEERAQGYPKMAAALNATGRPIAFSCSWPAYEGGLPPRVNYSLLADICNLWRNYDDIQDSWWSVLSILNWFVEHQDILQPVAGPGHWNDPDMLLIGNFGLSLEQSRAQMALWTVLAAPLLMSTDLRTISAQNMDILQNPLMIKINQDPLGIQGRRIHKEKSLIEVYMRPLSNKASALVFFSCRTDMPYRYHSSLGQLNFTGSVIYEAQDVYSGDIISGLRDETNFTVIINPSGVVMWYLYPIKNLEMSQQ
# alpha-galactosidase A = target: T2, alpha-galactosidase A (Homo sapiens, UniProt P06280); assay: Inhibition of alpha-galactosidase A by lyso-CTH; type: biochemical
# T2 sequence (P06280 32-429): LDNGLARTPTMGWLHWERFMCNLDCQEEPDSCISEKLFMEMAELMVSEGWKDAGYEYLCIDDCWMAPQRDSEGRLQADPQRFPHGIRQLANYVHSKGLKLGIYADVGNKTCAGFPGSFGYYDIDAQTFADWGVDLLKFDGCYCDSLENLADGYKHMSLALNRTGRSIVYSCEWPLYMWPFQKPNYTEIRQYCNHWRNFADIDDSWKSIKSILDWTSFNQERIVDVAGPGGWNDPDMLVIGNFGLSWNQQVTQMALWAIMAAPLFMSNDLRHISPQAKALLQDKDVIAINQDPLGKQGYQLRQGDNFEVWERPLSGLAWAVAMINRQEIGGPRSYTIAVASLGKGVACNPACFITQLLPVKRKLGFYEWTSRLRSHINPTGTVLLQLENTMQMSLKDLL
structure (smiles),measurement,setting,value
"CCCCCCCCCCCCC/C=C/[C@@H](O)[C@@H](N)CO[C@@H]1O[C@H](CO)[C@@H](O[C@@H]2O[C@H](CO)[C@H](O[C@H]3O[C@H](CO)[C@H](O)[C@H](O)[C@H]3O)[C@H](O)[C@H]2O)[C@H](O)[C@H]1O [lyso-CTH, lyso-ceramide trihexosamide]",3H thymidine incorporation (per 24 h),SMC-41 cell line,increased isotope incorporation
same,smooth muscle cell proliferation,SMC-41 cell line,promote in vitro smooth muscle cell proliferation; also recorded: increased proliferation
same,"Partitioning of lyso-CTH (% of total), lower phase",[1]; Bligh and Dyer extraction,10 % of total
same,"Partitioning of lyso-CTH (% of total), upper phase",[1]; Bligh and Dyer extraction,90 % of total
same,"Partitioning of lyso-CTH (% of total), lower phase",[1]; butanol/water extraction,2 % of total
same,"Partitioning of lyso-CTH (% of total), upper phase",[1]; butanol/water extraction,99 % of total
same,inhibition of alpha-galactosidase B,alpha-galactosidase B,potent inhibitor; also recorded: inhibits
same,inhibition of alpha-galactosidase A,alpha-galactosidase A,potent inhibitor; also recorded: inhibits

# Source: patent publication US20100047844A1, “DIAGNOSTIC MARKER FOR FABRY DISEASE” (Academisch Ziekenhuis bij de Universiteit van Amsterdam, priority 2006, published 2010)
